Like-named read-outs stand apart in the source and are kept apart here.
Experiments:
[1] = target: T1, CDK12 (Homo sapiens, UniProt Q9NYV4); assay: Cellular CDK12 inhibitory activity assay (Ser2 phosphorylation of RNA polymerase II subunit B1 CTD in MDA-MB-231 cells); assay type: cell-based; design: using MDA-MB-231 breast cancer cells; endogenous in cells; host or cells: MDA-MB-231; conditions: MDA-MB-231 cells, 6 hours treatment; read-out: pRpbl CTD S2 IC50
In short: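 MDA-MB-231 cells in L-15 with 10 % FBS were treated with compound at 9 concentrations for 6 h at 37 °C, 0 % CO2. In-Cell Western read phospho-Ser2 and total RNA polymerase II CTD on a Li-COR Odyssey; IC50 from 4-parameter dose-response fit.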

[2] = target: CDK13 (Homo sapiens, UniProt Q14004); assay: CDK13 kinase inhibitory activity assay (33P-ATP filter binding); assay type: biochemical
Chain of CDK13 (Q14004 whole entry, species assumed): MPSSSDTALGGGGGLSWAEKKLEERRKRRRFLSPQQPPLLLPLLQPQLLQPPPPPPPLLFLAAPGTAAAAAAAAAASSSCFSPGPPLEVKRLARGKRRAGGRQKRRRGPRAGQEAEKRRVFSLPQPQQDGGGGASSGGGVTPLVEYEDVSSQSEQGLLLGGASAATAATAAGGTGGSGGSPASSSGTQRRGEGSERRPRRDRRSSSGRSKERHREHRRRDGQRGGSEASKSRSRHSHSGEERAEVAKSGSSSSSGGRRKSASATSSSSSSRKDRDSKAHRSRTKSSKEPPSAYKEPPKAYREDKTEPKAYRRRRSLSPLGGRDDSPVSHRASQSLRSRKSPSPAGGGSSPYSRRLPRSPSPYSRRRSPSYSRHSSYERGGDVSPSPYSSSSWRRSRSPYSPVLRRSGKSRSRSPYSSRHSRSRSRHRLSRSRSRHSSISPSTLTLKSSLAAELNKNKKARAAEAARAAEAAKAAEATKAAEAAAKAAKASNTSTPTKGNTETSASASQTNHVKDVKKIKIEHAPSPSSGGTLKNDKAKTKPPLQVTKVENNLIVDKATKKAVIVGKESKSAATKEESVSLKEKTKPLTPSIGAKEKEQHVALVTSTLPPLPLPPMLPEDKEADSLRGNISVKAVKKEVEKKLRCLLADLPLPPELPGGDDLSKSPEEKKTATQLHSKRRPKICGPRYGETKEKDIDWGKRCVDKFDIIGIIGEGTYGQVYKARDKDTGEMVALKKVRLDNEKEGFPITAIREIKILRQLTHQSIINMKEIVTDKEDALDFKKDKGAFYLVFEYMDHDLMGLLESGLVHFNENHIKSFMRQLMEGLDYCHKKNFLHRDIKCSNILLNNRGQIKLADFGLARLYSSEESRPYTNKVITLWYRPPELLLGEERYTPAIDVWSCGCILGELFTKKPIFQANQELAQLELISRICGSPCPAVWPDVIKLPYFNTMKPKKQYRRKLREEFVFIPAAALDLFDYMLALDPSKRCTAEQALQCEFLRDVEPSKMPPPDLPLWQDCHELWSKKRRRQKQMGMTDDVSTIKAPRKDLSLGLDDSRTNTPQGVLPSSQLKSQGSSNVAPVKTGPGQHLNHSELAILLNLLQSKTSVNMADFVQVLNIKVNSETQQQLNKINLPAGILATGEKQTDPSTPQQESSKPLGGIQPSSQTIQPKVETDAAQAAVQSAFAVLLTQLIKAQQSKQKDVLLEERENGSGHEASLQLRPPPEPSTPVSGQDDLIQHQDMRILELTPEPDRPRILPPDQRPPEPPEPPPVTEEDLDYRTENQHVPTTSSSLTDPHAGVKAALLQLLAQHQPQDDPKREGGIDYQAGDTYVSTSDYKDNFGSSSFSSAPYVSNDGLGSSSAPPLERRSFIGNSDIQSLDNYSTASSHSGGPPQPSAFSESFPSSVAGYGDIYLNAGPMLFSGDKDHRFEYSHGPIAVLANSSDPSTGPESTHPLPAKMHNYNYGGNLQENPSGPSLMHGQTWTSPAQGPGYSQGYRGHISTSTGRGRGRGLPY
Chain of CDK13 (O75909 whole entry partner, species assumed): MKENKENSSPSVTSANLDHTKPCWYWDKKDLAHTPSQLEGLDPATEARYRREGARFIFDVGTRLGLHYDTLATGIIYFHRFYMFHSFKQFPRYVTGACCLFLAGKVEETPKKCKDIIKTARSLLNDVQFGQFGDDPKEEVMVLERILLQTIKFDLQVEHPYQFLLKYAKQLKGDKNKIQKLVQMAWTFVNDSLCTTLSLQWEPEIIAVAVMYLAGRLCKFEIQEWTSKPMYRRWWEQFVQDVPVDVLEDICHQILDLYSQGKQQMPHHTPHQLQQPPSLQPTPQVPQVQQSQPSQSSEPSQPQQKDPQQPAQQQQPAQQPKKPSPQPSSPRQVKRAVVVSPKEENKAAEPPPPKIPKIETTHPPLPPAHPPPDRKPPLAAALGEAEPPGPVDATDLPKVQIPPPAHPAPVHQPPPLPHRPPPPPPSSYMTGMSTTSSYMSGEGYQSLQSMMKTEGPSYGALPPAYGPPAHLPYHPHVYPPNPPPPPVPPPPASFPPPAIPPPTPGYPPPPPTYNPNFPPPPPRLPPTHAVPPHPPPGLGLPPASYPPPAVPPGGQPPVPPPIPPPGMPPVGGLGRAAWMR
In short: (§1)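 Compound in 9 concentrations pre-incubated 20 min with kinase and substrate, then ^33P-γ-ATP added and reacted 120 min at room temperature. Phosphorylated substrate captured on filter, washed with 0.75 % phosphoric acid and counted; activity as % of DMSO control, IC50 fitted.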

[3] = target: T1, CDK12; assay: CDK12 kinase inhibitory activity assay (33P-ATP filter binding); assay type: biochemical
In short: as §1

[4] = target: CDK1 (Homo sapiens, UniProt P06493); assay: CDK1 kinase inhibitory activity assay and selectivity over CDK12; assay type: biochemical; conditions: for IC50: kinase reaction 120 minutes, 33P-gamma-ATP; for CDK1/CDK12: ratio of CDK1 IC50 to CDK12 IC50
Chain of CDK1 (P06493 whole entry, species assumed): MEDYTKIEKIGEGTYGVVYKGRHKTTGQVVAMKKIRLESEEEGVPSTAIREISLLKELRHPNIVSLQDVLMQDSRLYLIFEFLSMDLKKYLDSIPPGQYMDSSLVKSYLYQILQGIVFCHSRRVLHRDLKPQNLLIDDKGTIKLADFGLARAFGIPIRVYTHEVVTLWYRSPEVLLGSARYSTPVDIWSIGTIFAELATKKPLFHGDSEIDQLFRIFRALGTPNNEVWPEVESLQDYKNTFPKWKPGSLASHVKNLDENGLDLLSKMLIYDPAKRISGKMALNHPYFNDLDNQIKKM
Chain of CDK1 (P14635 whole entry partner, species assumed): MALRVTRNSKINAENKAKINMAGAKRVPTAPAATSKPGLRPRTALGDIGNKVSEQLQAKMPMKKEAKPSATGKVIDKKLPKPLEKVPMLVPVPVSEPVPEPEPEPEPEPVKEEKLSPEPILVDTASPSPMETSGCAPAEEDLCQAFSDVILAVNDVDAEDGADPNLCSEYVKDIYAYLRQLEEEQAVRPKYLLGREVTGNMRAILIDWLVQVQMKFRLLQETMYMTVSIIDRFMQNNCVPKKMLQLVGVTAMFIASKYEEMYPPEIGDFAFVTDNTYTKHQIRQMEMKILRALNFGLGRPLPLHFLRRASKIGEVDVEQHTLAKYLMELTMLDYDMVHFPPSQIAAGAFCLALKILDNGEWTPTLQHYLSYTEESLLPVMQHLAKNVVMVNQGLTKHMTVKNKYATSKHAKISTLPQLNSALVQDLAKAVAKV
Experimental: (§2) Before initiating the CDK1 and CDK2 kinase reactions, each Example compound was dissolved and diluted in DMSO as a solvent across 9 concentration ranges at room temperature. The diluted solutions were then incubated with a mixture of kinase and substrate (and cofactors, if required) for 20 minutes. Next, radioisotope-labeled ATP (^33P-gamma-ATP) was added to proceed with the kinase reaction at room temperature for 120 minutes. After the reaction was completed, the reaction mixture was transferred to a filter paper that binds the radioisotope-labeled catalytic product (^33P-substrate). Unreacted ^33P-ATP was removed by washing with 0.75 % phosphoric acid, and then the radioactive phosphorylated substrate remaining on the filter paper was measured. Kinase activity data were expressed as a percentage of the kinase activity remaining in the test sample compared to a DMSO control group. The half-maximal inhibitory concentration (IC50) for each kinase was calculated using Prism software.
(§3) The CDK1 and CDK2 kinase inhibitory activities of the Example compounds measured by the above method were evaluated according to the following criteria, and the results are presented in Table 14.

[5] = target: CDK2 (Homo sapiens, UniProt P24941); assay: CDK2 kinase inhibitory activity assay and selectivity over CDK12; assay type: biochemical; conditions: for IC50: kinase reaction 120 minutes, 33P-gamma-ATP; for CDK2/CDK12: ratio of CDK2 IC50 to CDK12 IC50
Experimental: as §2, §3

[6] = tested on: MDA-MB-231 breast cancer cells; assay: Proliferation inhibitory activity assay against MDA-MB-231 breast cancer cells; assay type: cell-based; conditions: Homo sapiens, 72 hours, CellTiter Glo, relative IC50
In short: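 Cells grown in L-15 with 10% FBS at 37 °C, 0% CO2, then exposed next day to compounds at 9 concentrations (DMSO vehicle) for 72 h. Viability read by CellTiter Glo luminescence; relative IC50 from dose-response curve fit.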

[7] = kinase reaction 120 minutes, 33P-gamma-ATP, read-out: CDK12 IC50
[8] = kinase reaction 120 minutes, 33P-gamma-ATP, read-out: CDK13 IC50

T1 sequence (Q9NYV4 whole entry, species assumed): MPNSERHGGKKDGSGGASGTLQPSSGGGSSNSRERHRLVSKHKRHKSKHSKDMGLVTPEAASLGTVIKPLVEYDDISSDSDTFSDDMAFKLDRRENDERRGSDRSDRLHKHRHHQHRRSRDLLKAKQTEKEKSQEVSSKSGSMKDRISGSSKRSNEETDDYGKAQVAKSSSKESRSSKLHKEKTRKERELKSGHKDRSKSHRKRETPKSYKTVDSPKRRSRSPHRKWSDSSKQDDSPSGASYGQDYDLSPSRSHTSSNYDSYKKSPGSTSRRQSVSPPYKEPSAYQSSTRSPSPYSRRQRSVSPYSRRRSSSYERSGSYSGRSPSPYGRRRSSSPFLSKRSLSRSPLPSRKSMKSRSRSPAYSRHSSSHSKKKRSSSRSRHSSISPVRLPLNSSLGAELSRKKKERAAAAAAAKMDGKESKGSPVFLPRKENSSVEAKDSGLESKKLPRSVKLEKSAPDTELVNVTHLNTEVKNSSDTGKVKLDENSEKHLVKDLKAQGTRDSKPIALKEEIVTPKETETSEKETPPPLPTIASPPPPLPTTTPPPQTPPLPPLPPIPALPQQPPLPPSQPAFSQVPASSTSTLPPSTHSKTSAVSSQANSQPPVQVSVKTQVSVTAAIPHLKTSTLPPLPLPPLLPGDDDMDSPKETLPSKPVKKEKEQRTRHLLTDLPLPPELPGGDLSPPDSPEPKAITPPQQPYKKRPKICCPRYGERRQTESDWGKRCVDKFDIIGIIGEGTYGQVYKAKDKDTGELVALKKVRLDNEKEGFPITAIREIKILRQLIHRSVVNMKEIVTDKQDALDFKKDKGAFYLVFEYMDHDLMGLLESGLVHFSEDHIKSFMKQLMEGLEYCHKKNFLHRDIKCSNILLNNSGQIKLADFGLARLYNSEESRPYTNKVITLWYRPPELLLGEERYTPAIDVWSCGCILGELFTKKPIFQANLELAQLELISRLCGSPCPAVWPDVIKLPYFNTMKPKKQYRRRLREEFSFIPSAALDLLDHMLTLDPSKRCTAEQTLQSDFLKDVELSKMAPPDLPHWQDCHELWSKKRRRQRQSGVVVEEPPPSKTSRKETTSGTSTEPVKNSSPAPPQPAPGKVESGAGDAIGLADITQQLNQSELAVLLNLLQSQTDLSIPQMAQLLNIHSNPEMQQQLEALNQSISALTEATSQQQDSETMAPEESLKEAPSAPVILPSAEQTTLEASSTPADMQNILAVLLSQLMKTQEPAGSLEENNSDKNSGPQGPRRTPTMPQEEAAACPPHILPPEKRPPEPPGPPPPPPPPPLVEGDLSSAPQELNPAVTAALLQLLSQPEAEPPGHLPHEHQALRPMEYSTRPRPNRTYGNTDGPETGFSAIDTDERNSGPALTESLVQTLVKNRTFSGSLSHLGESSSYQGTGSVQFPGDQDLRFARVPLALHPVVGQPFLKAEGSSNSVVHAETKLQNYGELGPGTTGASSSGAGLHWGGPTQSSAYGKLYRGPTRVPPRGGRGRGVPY
T1 sequence (O75909 whole entry partner, species assumed): as the sequence (O75909 whole entry partner, species assumed) above

Row | Compound | IC50 [1] | IC50 [2] | IC50 [3, 7] | IC50 [4] | IC50 [5] | IC50 [6] | IC50 [2, 8] | CDK1/CDK12 [4] | CDK2/CDK12 [5] | IC50 [3]
1 | Fc1ccc2nc(CNc3cc(N4C5CCC4COC5)nn4c(C(F)(F)F)cnc34)[nH]c2c1F [Example 7, 6-(3-oxa-8-azabicyclo[3.2.1]octan-8-yl)-N-((6,7-difluoro-1H-benzo[d]imidazol-2-yl)methyl)-3-(trifluoromethyl)imidazo[1,2-b]pyridazin-8-amine] | < 300 nM | < 100 nM | 100 to 500 nM | > 1000 nM | > 1000 nM | ≤ 50 nM | – | C (CDK1/CDK12 or CDK2/CDK12 ≤ 100-fold) | C (CDK1/CDK12 or CDK2/CDK12 ≤ 100-fold) | –
2 | Fc1ccc2nc(CNc3cc(N4C5CCC4CNC5)nn4c(C(F)(F)F)cnc34)[nH]c2c1F [Example 11, 6-(3,8-diazabicyclo[3.2.1]octan-8-yl)-N-((6,7-difluoro-1H-benzo[d]imidazol-2-yl)methyl)-3-(trifluoromethyl)imidazo[1,2-b]pyridazin-8-amine] | < 300 nM | – | < 100 nM | 100 to 1000 nM | 100 to 1000 nM | ≤ 50 nM | < 100 nM | B (100-fold < CDK1/CDK12 or CDK2/CDK12 ≤ 500-fold) | B (100-fold < CDK1/CDK12 or CDK2/CDK12 ≤ 500-fold) | –
3 | CN1CC2CCC(C1)N2c1cc(NCc2nc3ccc(F)c(F)c3[nH]2)c2ncc(C(F)(F)F)n2n1 [Example 13] | < 300 nM | – | < 100 nM | > 1000 nM | > 1000 nM | ≤ 50 nM | < 100 nM | A (CDK1/CDK12 or CDK2/CDK12 > 500-fold) | B (100-fold < CDK1/CDK12 or CDK2/CDK12 ≤ 500-fold) | –
4 | OC1CC2CCC(C1)N2c1cc(NCc2nc3ccc(F)c(F)c3[nH]2)c2ncc(C(F)(F)F)n2n1 (stereo not shown) [Example 14, 8-(8-(((6,7-difluoro-1H-benzo[d]imidazol-2-yl)methyl)amino)-3-(trifluoromethyl)imidazo[1,2-b]pyridazin-6-yl)-8-azabicyclo[3.2.1]octan-3-ol] | < 300 nM | – | 100 to 500 nM | > 1000 nM | 100 to 1000 nM | ≤ 50 nM | < 100 nM | C (CDK1/CDK12 or CDK2/CDK12 ≤ 100-fold) | C (CDK1/CDK12 or CDK2/CDK12 ≤ 100-fold) | –
5 | NC1CCN(c2cc(NCc3nc4ccc(F)c(F)c4[nH]3)c3ncc(C(F)(F)F)n3n2)CC1 [Example 18] | < 300 nM | – | < 100 nM | > 1000 nM | > 1000 nM | ≤ 50 nM | < 100 nM | A (CDK1/CDK12 or CDK2/CDK12 > 500-fold) | A (CDK1/CDK12 or CDK2/CDK12 > 500-fold) | –
6 | Fc1ccc2nc(CNc3cc(N4CCOCC4)nn4c(C5CC5)cnc34)[nH]c2c1F [Example 23, 3-cyclopropyl-N-((6,7-difluoro-lH-benzo[d]imidazol-2-yl)methyl)-6-morpholinoimidazo[1,2-b]pyridazin-8-amine] | 300 to 3000 nM | – | – | > 1000 nM | > 1000 nM | 50 to 500 nM | < 100 nM | – | – | 100 to 500 nM
7 | FC(F)(F)c1cnc2c(NCc3nc4cc(Cl)c(Cl)cc4[nH]3)cc(N3CC4CCC(C3)O4)nn12 [Example 42] | 300 to 3000 nM | – | – | > 1000 nM | > 1000 nM | 50 to 500 nM | < 100 nM | – | – | 100 to 500 nM
8 | FC(F)(F)c1cnc2c(NCc3nc4cc(Cl)c(Cl)cc4[nH]3)cc(N3CCOCC3)nn12 [Example 68, N-((5,6-dichloro-1H-benzo[d]imidazol-2-yl)methyl)-6-morpholino-3-(trifluoromethyl)imidazo[1,2-b]pyridazin-8-amine] | < 300 nM | – | 100 to 500 nM | > 1000 nM | > 1000 nM | ≤ 50 nM | < 100 nM | C (CDK1/CDK12 or CDK2/CDK12 ≤ 100-fold) | C (CDK1/CDK12 or CDK2/CDK12 ≤ 100-fold) | –

The next lines start with results.

Row | IC50 [1] | IC50 [2] | IC50 [3, 7] | IC50 [4] | IC50 [5] | IC50 [6] | IC50 [2, 8] | Compound | CDK1/CDK12 [4] | CDK2/CDK12 [5] | IC50 [3]
9 | 300 to 3000 nM | – | < 100 nM | > 1000 nM | > 1000 nM | ≤ 50 nM | < 100 nM | OC1CN(c2cc(NCc3nc4ccc(F)c(F)c4[nH]3)c3ncc(C(F)(F)F)n3n2)C1 [Example 16, 1-(8-(((6,7-difluoro-1H-benzo[d]imidazol-2-yl)methyl)amino)-3-(trifluoromethyl)imidazo[1,2-b]pyridazin-6-yl)azetidin-3-ol] | B (100-fold < CDK1/CDK12 or CDK2/CDK12 ≤ 500-fold) | C (CDK1/CDK12 or CDK2/CDK12 ≤ 100-fold) | –
10 | < 300 nM | – | < 100 nM | > 1000 nM | > 1000 nM | ≤ 50 nM | < 100 nM | Fc1ccc2nc(CNc3cc(N4CCNCC4)nn4c(C(F)(F)F)cnc34)[nH]c2c1F [Example 17] | A (CDK1/CDK12 or CDK2/CDK12 > 500-fold) | B (100-fold < CDK1/CDK12 or CDK2/CDK12 ≤ 500-fold) | –
11 | 300 to 3000 nM | < 100 nM | < 100 nM | > 1000 nM | > 1000 nM | ≤ 50 nM | – | OC1CCN(c2cc(NCc3nc4ccc(F)c(F)c4[nH]3)c3ncc(C(F)(F)F)n3n2)CC1 [Example 19, 1-(8-(((6,7-difluoro-1H-benzo[d]imidazol-2-yl)methyl)amino)-3-(trifluoromethyl)imidazo[1,2-b]pyridazin-6-yl)piperidin-4-ol] | A (CDK1/CDK12 or CDK2/CDK12 > 500-fold) | A (CDK1/CDK12 or CDK2/CDK12 > 500-fold) | –
12 | < 300 nM | < 100 nM | < 100 nM | > 1000 nM | > 1000 nM | 50 to 500 nM | – | C#Cc1cnc2c(NCc3nc4ccc(F)c(F)c4[nH]3)cc(-c3cnc(N)nc3)nn12 [Example 22, 6-(2-aminopyrimidin-5-yl)-N-((6,7-difluoro-1H-benzo[d]imidazol-2-yl)methyl)-3-ethynylimidazo[1,2-b]pyridazin-8-amine] | A (CDK1/CDK12 or CDK2/CDK12 > 500-fold) | A (CDK1/CDK12 or CDK2/CDK12 > 500-fold) | –
13 | < 300 nM | – | < 100 nM | > 1000 nM | > 1000 nM | ≤ 50 nM | < 100 nM | Nc1ncc(-c2cc(NCc3nc4ccc(F)c(F)c4[nH]3)c3ncc(C(F)(F)F)n3n2)cn1 [Example 35] | A (CDK1/CDK12 or CDK2/CDK12 > 500-fold) | B (100-fold < CDK1/CDK12 or CDK2/CDK12 ≤ 500-fold) | –
14 | < 300 nM | – | < 100 nM | > 1000 nM | > 1000 nM | 50 to 500 nM | < 100 nM | OC1CN(c2cc(NCc3nc4cc(Cl)c(Cl)cc4[nH]3)c3ncc(C(F)(F)F)n3n2)C1 [Example 41, 1-(8-(((5,6-dichloro-1H-benzo[d]imidazol-2-yl)methyl)amino)-3-(trifluoromethyl)imidazo[1,2-b]pyridazin-6-yl)azetidin-3-ol] | B (100-fold < CDK1/CDK12 or CDK2/CDK12 ≤ 500-fold) | B (100-fold < CDK1/CDK12 or CDK2/CDK12 ≤ 500-fold) | –
15 | < 300 nM | – | 100 to 500 nM | > 1000 nM | > 1000 nM | ≤ 50 nM | 100 to 500 nM | N#CC1CCN(c2cc(NCc3nc4cc(Cl)c(Cl)cc4[nH]3)c3ncc(C(F)(F)F)n3n2)CC1 [Example 44, 1-(8-(((5,6-dichloro-1H-benzo[d]imidazol-2-yl)methyl)amino)-3-(trifluoromethyl)imidazo[1,2-b]pyridazin-6-yl)piperidine-4-carbonitrile] | – | – | –
16 | < 300 nM | – | < 100 nM | > 1000 nM | > 1000 nM | ≤ 50 nM | < 100 nM | CN1CC2(C1)CN(c1cc(NCc3nc4cc(Cl)c(Cl)cc4[nH]3)c3ncc(C(F)(F)F)n3n1)C2 [Example 46, N-((5,6-dichloro-1H-benzo[d]imidazol-2-yl)methyl)-6-(6-methyl-2,6-diazaspiro[3.3]heptan-2-yl)-3-(trifluoromethyl)imidazo[1,2-b]pyridazin-8-amine] | – | B (100-fold < CDK1/CDK12 or CDK2/CDK12 ≤ 500-fold) | –

Reference: patent publication EP4813991A1 (iLeadBMS Co., Ltd., priority 2023, dated 2025)
